Test: xn = mol fraction of the nth substance listed

F.[F-].[Na+] + O
viscosity [mPa·s], 100 kPa
Settings	x1 = 0.003	x1 = 0.006	x1 = 0.009
298.15 K	0.939	0.9963	1.068
323.15 K	0.578	0.61	0.657

Cc1ccc[n+](CCCO)c1.[Cl-] + O
viscosity [mPa·s], 100 kPa
Settings	x1 = 0.001832	x1 = 0.002695	x1 = 0.003588	x1 = 0.005369	x1 = 0.007151	x1 = 0.008924
293.15 K	1.065	1.09	1.114	1.16	1.204	1.246
298.15 K	0.943	0.965	0.986	1.025	1.063	1.1
303.15 K	0.841	0.86	0.877	0.912	0.945	0.976
308.15 K	0.757	0.773	0.789	0.819	0.848	0.876
313.15 K	0.682	0.696	0.709	0.735	0.76	0.784

COc1ccccc1O + Cc1ccccc1N
303.15 K, 101 kPa
Settings	viscosity [mPa·s]
x2 = 0.1	4.73
x2 = 0.2	4.93
x2 = 0.3	5.2
x2 = 0.34	5.22
x2 = 0.36	5.19
x2 = 0.4	5.17
x2 = 0.5	5.12
x2 = 0.6	4.82
x2 = 0.7	4.38
x2 = 0.8	4
x2 = 0.9	3.58

CC(C)[N+](=O)[O-] + Cc1ccc(C)cc1
293.15 K, 101.33 kPa
Settings	viscosity [mPa·s]
x1 = 0.1052	0.64
x1 = 0.2079	0.636
x1 = 0.2945	0.638
x1 = 0.3973	0.644
x1 = 0.4976	0.651
x1 = 0.6039	0.664
x1 = 0.7089	0.678
x1 = 0.8008	0.699
x1 = 0.8925	0.727

COc1ccccc1O + Nc1ccccc1
303.15 K, 101 kPa
Settings	viscosity [mPa·s]
x2 = 0.1	4.74
x2 = 0.2	4.9
x2 = 0.3	5.11
x2 = 0.35	5.15
x2 = 0.4	5.23
x2 = 0.45	5.12
x2 = 0.5	5.09
x2 = 0.55	4.94
x2 = 0.6	4.86
x2 = 0.7	4.58
x2 = 0.8	4.23
x2 = 0.9	3.61

Brc1ccccc1 + COC(C)=O
viscosity [mPa·s], 101 kPa
Settings	298.15 K	308.15 K
x2 = 0.0439	0.978	0.915
x2 = 0.1485	0.848	0.811
x2 = 0.2482	0.747	0.725
x2 = 0.3503	0.662	0.649
x2 = 0.4378	0.602	0.592
x2 = 0.4901	0.57	0.561
x2 = 0.5493	0.538	0.529
x2 = 0.6489	0.492	0.48
x2 = 0.7491	0.453	0.437
x2 = 0.8491	0.421	0.399
x2 = 0.9433	0.397	0.368

COc1ccccc1O + CNc1ccccc1
303.15 K, 101 kPa
Settings	viscosity [mPa·s]
x2 = 0.1	4
x2 = 0.2	3.72
x2 = 0.3	3.36
x2 = 0.4	3.03
x2 = 0.5	2.76
x2 = 0.6	2.44
x2 = 0.7	2.22
x2 = 0.8	1.99
x2 = 0.9	1.72

C1COCCO1 + CCO
viscosity [mPa·s]
Settings	293.15 K	298.15 K	303.15 K	308.15 K
101 kPa, x1 = 0.0584	–	0.992	–	–
101 kPa, x1 = 0.1156	–	0.938	–	–
101 kPa, x1 = 0.1834	–	0.884	–	–
101 kPa, x1 = 0.2678	–	0.86	–	–
101 kPa, x1 = 0.3	–	0.9243	–	–
101 kPa, x1 = 0.3438	–	0.849	–	–
101 kPa, x1 = 0.4473	–	0.863	–	–
101 kPa, x1 = 0.5589	–	0.885	–	–
101 kPa, x1 = 0.689	–	0.933	–	–
101 kPa, x1 = 0.8264	–	1.029	–	–
101 kPa, x2 = 0.1798	–	1.027	0.9544	0.8897
101 kPa, x2 = 0.324	–	0.9634	0.8928	0.8361
101 kPa, x2 = 0.4539	–	0.9317	0.8654	0.8124
101 kPa, x2 = 0.5608	–	0.9336	0.8661	0.8072
101 kPa, x2 = 0.6591	–	0.9547	0.8825	0.8181
101 kPa, x2 = 0.7972	–	1.025	0.9451	0.8639
101 kPa, x2 = 0.8858	–	1.102	1.008	0.919
101 kPa, x2 = 0.9427	–	1.179	1.068	0.9697
101.33 kPa, x1 = 0.0703	1.069	0.96	0.8879	0.8147
101.33 kPa, x1 = 0.1455	0.9889	0.8885	0.8285	0.7595
101.33 kPa, x1 = 0.2259	0.9468	0.8529	0.7902	0.7308
101.33 kPa, x1 = 0.3126	0.9216	0.8387	0.7727	0.7174
101.33 kPa, x1 = 0.4045	0.9225	0.8391	0.7751	0.7182
101.33 kPa, x1 = 0.5051	0.9277	0.8469	0.7819	0.7278
101.33 kPa, x1 = 0.6163	0.9582	0.8803	0.8165	0.7622
101.33 kPa, x1 = 0.7297	1.029	0.9425	0.8647	0.8101
101.33 kPa, x1 = 0.86	1.135	1.044	0.9699	0.8938
101.33 kPa, x2 = 0.2101	–	–	0.984	–
101.33 kPa, x2 = 0.5822	–	–	0.825	–
101.33 kPa, x2 = 0.7056	–	–	0.798	–
101.33 kPa, x2 = 0.9653	–	–	0.927	–

C=CC[P+](c1ccccc1)(c1ccccc1)c1ccccc1.[Br-] + OCC(O)CO
101 kPa, x1 = 0.0667
Settings	viscosity [mPa·s]
296.84 K	1037
302.15 K	679.9
306.82 K	475.9
312.25 K	314.4

CCCCn1cc[n+](C)c1.O=S(=O)([N-]S(=O)(=O)C(F)(F)F)C(F)(F)F + CCCCn1cc[n+](C)c1.F[B-](F)(F)F
Settings	viscosity [mPa·s]
323.15 K, 100 kPa, x1 = 0.751	23.85

Brc1ccccc1 + ClC(Cl)(Cl)Cl
Settings	viscosity [mPa·s]
298 K, 101.3 kPa, x2 = 0.1709	1.035
298 K, 101.3 kPa, x2 = 0.3202	1.011
298 K, 101.3 kPa, x2 = 0.5187	0.971
298 K, 101.3 kPa, x2 = 0.6674	0.942
298 K, 101.3 kPa, x2 = 0.8522	0.915
303.15 K, 101 kPa, x1 = 0.092	0.727
303.15 K, 101 kPa, x1 = 0.187	0.653
303.15 K, 101 kPa, x1 = 0.283	0.624
303.15 K, 101 kPa, x1 = 0.38	0.595
303.15 K, 101 kPa, x1 = 0.479	0.619
303.15 K, 101 kPa, x1 = 0.58	0.656
303.15 K, 101 kPa, x1 = 0.682	0.7
303.15 K, 101 kPa, x1 = 0.787	0.778
303.15 K, 101 kPa, x1 = 0.892	0.881
318 K, 101.3 kPa, x2 = 0.1581	0.8313
318 K, 101.3 kPa, x2 = 0.3169	0.8147
318 K, 101.3 kPa, x2 = 0.5212	0.7898
318 K, 101.3 kPa, x2 = 0.6657	0.7758
318 K, 101.3 kPa, x2 = 0.8618	0.76

Brc1ccccc1 + CN(C)C=O
viscosity [mPa·s], 101.33 kPa
Settings	x2 = 0.0879	x2 = 0.2075	x2 = 0.3085	x2 = 0.4055	x2 = 0.5063	x2 = 0.6027	x2 = 0.6877	x2 = 0.8054	x2 = 0.9001	x2 = 0.9002
303.15 K	0.982	0.973	0.963	0.949	0.931	0.905	0.879	0.831	–	0.789
313.15 K	0.889	0.879	0.87	0.854	0.838	0.816	0.792	0.749	0.711	–

COC(=O)CC(=O)OC + ClC(Cl)Cl
303.15 K, 101 kPa
Settings	viscosity [mPa·s]
x1 = 0.0727	0.612
x1 = 0.1507	0.727
x1 = 0.2329	0.845
x1 = 0.3213	0.968
x1 = 0.415	1.092
x1 = 0.5154	1.222
x1 = 0.6231	1.354
x1 = 0.7393	1.492
x1 = 0.8644	1.64

Source: the CheMixHub viscosity set
